Series [1] concerns Bronchiectasis clinical isolates, PA14 and PAO1. Kind of series: Antimicrobial minimal inhibitory concentrations (MIC), microdilution. As to conditions: Pseudomonas aeruginosa. For orientation: Dilution methods test growth across graded concentrations, often in twofold steps.
A short description of series [2]: Plasma protein binding, murine (equilibrium dialysis). Type of series: in vitro ADME, mouse. The protocol: (§1) 1.4.4 Pharmacokinetic and off-target functional assays (Cyprotex)
(§2) Compound 24 was assayed at Cyprotex in functional assays for interference with important off-targets as well as important pharmacokinetic parameters. With the exception of plasma protein binding, a dose-response relationship was studied in order to calculate IC50 values.
(§3) Table S10. Information on in vitro ADMET assays performed at Cyprotex. […]
Plasma protein binding assay (human and Equilibrium dialysis […]
(§4) An increase in the number of colonies of at least two-fold over baseline (mean + SD of the vehicle control) and a dose response indicate a positive response. An […]
(§5) different from the vehicle control.
(§6) Where indicated, S9 fraction from the livers of Aroclor 1254-treated rats were included in the incubation at a final concentration of 4.5%. A NADPH-regenerating system was also included to ensure a steady supply of reducing equivalents.

The target in another series is T1, AhR receptor (Homo sapiens, UniProt P35869).
T1 construct: Cyprotex
As to the kind of experiment: AhR nuclear receptor activation, luciferase reporter gene assay. The series is classed as cell-based. The protocol:
as §1, §2, §3, §4, §5, §6
(In a reporter assay the amount or activity of a reporter protein is the signal.)

The target of series [3] is T2, HTR2B Human 5-Hydroxytryptamine GPCR (Homo sapiens, UniProt P41595).
T2 construct: 86-0030P-2091AN
As to the kind of experiment: HTR2B GPCR calcium assay, 86-0030P-2091AN. The series is classed as cell-based. The text has this:
1.4.2 Further functional off-target assays (Eurofins)
Table S8. Compound 24 was further tested in the following functional assays at Eurofins.
ASSAY NAME ESTIMATED IC50 [µM] […]
FLIPR Assay expressed in HEK293 cells
GABAA α5/β3/γ2 ionotropic receptor (human GABRA5, GABRB3, >30
and GABRG2 genes, expressed in HEK293 cells

In series [4] the test system is Pseudomonas aeruginosa strain RP73. Kind of series: Alkylquinolone quantification, strain RP73. As to conditions: RP73, 17 h. The series is classed as cell-based. The protocol: re-extracted with 0.2 M HCl and quantified photometrically (520 nm). IC50 values were determined from dose-response curves of compounds using at least six different concentrations and fitting with non-linear regression analysis (OriginPro 2017–2020, Originlab Corporation).
1.2.3 Alkylquinolone quantification
Inhibition of alkylquinolone (AQ) signal molecule biosynthesis of compound 24 was analyzed via LC-ESI-MS/MS. Extracellular concentrations of the AQs PQS (2-heptyl-3-hydroxy-4-quinolone), HHQ (2-heptyl-4-quinolone), HQNO (N-oxo-2-heptyl-4-Hydroxyquinoline), 2-AA (2-aminoacetophenone) were measured from supernatants of cultures incubated with or without compound for 17 h. 5,6,7,8-Tetradeutero-2-heptyl-4(1H)-quinolone (HHQ-d4) was added as internal standard before sample preparation. IC50 values were calculated according to the procedure of the pyocyanin assay (see above). LC-ESI-MS/MS conditions were as follows: Dionex Ultimate 3000 HPLC instrument parameters: Zorbax Eclipse XDB 80 Å C18 5 µm 4.6 x 50 mm (Agilent, Santa Clara, CA, USA); eluent A – H2O with 0.1% trifluoroacetic acid (TFA), 0.1% pentafluoropropionic acid (PFPA), 0.1% heptafluorobutyric acid (HFBA); eluent B – acetonitrile with 0.1% TFA, 0.1% PFPA, 0.1% HFBA; isocratic 50% A; flow – 0.7 mL/min. TSQ Quantum Access Max (Thermo Fisher Scientific, Waltham, MA, USA) instrument parameters: Spray voltage 3500 V, vaporizer temperature 370 °C, sheath gas pressure 35 psi, aux gas pressure 30 psi, capillary temperature 270 °C, collision pressure 1.5 mTorr, positive ionization mode. For AQ analyte reaction monitoring parameters please see Table S1.
Table S1. LC-ESI-MS/MS reaction monitoring parameters of AQ analytes in positive ionization mode. precursor product ion collision tube lens retention ion m/z m/z energy (V) offset (V) time (min)
1.2.4 Biofilm-formation assay […]
(Innvotech, Edmonton, CA). An overnight culture of PA14 was centrifuged (10 min, 5000 x g). The supernatant including extracellular polymers was removed and the pellet washed with 10 mL of LB medium. Centrifugation was repeated, the supernatant discarded, and the pellet resuspended in 5 mL of LB. OD was adjusted to 0.2. The bacteria were further diluted in LB medium, followed by addition of the target compound or DMSO control to give OD 0.1 and 1% DMSO. 150 µL were added to each well of the 96-well plate. The outer wells were used as blanks containing 150 µL of 1% DMSO in LB. Six replicates per sample were distributed evenly across the plate, with every row containing one replicate of each sample. The well plate was covered with the peg lid. One layer of parafilm was wrapped around the biofilm inoculator. The inoculator was incubated at 37 °C, static for 24 h with a beaker of H2O ensuring humidity. […]

Molecules are shown by their SMILES. Values after ≈ are worked out from the molar mass of the structure shown. Where two headings read alike, the source gives them in different places.

T1 sequence (P35869 11-848): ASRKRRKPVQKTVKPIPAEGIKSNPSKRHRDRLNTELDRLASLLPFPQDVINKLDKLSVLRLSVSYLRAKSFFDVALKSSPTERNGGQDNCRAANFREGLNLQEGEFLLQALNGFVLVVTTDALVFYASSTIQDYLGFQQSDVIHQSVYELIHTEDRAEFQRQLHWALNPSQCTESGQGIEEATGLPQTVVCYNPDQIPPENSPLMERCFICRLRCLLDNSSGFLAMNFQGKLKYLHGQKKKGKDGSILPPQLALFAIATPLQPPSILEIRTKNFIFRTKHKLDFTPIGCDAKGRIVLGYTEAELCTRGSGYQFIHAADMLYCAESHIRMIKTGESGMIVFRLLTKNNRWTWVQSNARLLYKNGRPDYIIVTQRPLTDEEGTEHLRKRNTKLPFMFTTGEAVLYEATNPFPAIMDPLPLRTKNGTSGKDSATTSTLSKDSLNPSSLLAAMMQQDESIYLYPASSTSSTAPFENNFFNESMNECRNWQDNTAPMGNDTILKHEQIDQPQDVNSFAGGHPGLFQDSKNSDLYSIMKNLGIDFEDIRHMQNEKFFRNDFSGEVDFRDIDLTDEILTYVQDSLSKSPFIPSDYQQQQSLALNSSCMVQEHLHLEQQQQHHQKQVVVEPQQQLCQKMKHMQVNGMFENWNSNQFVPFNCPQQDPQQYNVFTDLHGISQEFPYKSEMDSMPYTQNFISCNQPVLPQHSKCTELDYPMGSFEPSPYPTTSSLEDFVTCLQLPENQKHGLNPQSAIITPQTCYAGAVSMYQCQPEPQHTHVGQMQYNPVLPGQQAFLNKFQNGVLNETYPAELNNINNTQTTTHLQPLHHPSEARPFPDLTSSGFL
T2 sequence (P41595 whole entry): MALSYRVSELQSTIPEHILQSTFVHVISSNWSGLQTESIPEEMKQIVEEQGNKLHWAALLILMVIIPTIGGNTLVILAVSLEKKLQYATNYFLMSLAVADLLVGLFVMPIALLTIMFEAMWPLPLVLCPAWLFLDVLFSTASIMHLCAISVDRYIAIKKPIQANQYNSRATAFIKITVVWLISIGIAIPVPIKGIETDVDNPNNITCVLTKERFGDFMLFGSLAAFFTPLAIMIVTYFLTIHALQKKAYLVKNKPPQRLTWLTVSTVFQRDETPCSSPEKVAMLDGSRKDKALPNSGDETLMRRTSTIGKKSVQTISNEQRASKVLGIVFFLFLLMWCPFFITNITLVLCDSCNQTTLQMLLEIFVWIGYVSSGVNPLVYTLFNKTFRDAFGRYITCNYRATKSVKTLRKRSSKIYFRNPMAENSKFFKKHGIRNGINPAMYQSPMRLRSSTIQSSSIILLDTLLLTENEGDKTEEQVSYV

On to `NC[C@H]1O[C@H](O[C@H]2[C@H](O)[C@@H](O[C@H]3O[C@H](CO)[C@@H](O)[C@H](N)[C@H]3O)[C@H](N)C[C@@H]2N)[C@H](N)C[C@@H]1O` [Tobramycin, tobramycin], for which the MIC (commonly the least concentration at which growth counts as inhibited) was 1 µg/mL (≈ 2.14 µM) in series [1] (PA14|PAO1, strain column 1 of 16 (strain heads not assignable)); 1 µg/mL (≈ 2.14 µM) in series [1] (strain column 2 of 16); ≤ 0.5 µg/mL in series [1] (strain column 3 of 16); ≤ 0.5 µg/mL in series [1] (strain column 4 of 16); ≤ 0.5 µg/mL in series [1] (strain column 5 of 16); ≤ 0.5 µg/mL in series [1] (strain column 6 of 16). Moreover, the MIC was ≤ 0.5 µg/mL in series [1] (strain column 7 of 16); 2 µg/mL (≈ 4.28 µM) in series [1] (strain column 8 of 16); 1 µg/mL (≈ 2.14 µM) in series [1] (strain column 9 of 16); ≤ 0.5 µg/mL in series [1] (strain column 10 of 16); ≤ 0.5 µg/mL in series [1] (strain column 11 of 16); ≤ 0.5 µg/mL in series [1] (strain column 12 of 16). The MIC in series [1] (strain column 13 of 16), in series [1] (strain column 14 of 16), in series [1] (strain column 15 of 16) and in series [1] (strain column 16 of 16) was ≤ 0.5 µg/mL in each case.
Take `CC(C)Oc1ccc(-c2ncc(CNc3ccnc(C(F)(F)F)c3)cn2)cc1Cl` [Compound 24]: in series [2], the Plasma binding murine was >99%. Further, the “fold AhR receptor induction” value on AhR receptor (fold activation @1 × 10^−6 M) is recorded as 0.91 @1 × 10^−6 M ^a). The AhR induction result at AhR receptor (up to 25 × 10^−6 M) is reported as “Neither AhR induction”. For the same compound, the IC50 (in general, the concentration that gives 50% inhibition) in series [3] is > 10000 nM; in series [4] (read-out: IC50 RP73, 2‐AA biosynthesis) it was 213 nM; in series [4] (read-out: IC50 RP73, HHQ biosynthesis) it was 453 nM; in series [4] (read-out: IC50 RP73, HQNO biosynthesis), 230 nM; in series [4] (read-out: IC50 RP73, PQS biosynthesis), 160 nM.
